pKd: −log10 of the molar value.
Target: GAPD siRNA
Test: Isothermal calorimetry (ITC) binding of SMOC to siRNA
Settings: 6G-SMOC 250 μM in syringe, siRNA 3.5 μM in cell, FIG. 2
Method: An isothermal calorimetry experiment (ITC) was carried out to analyse the strength of the binding between the 6G-SMOG compound shown below and siRNA targeted to the […].
6G-SMOC at a concentration of 250 μM was loaded into the syringe of a Microcal VP-ITC calorimeter (450 μl), and the cell (1.8 ml) filled with GAPD siRNA (Dharmacon RNAi Technologies) at a concentration of 3.5 μM. A total of 37 injections of 8 μl each were made at 4 minute intervals to ensure total saturation of the siRNA. The binding curve was plotted using Origin 6.0 (Microcal) and the binding constants calculated.

pKd: ~4.10
Compound: N=C(N)NCCOc1cccc(-c2ccc(-c3cccc(OCCNC(=N)N)c3OCCNC(=N)N)c(OCCNC(=N)N)c2OCCNC(=N)N)c1OCCNC(=N)N [6G-SMOC]
